One may read the MIC50 as the lowest concentration that inhibits either 50% of growth or 50% of the strains tested, depending on the study. For orientation: MIC90 means an inhibitory concentration at the 90% level, which refers to growth in some studies and to a panel of isolates in others. Higher therefore signals weaker potency.

This note sets out measurements from US8563503B2, “Antibiotic, its nucleotide sequence, methods of construction and uses thereof” (Protein Design Lab. Ltd., priority 2011, dated 2013).

Assay [1] deals with methicillin-resistant Staphylococcus aureus (ATCC BAA-42). Kind of assay: Transmission electron microscope observation of bactericidal effect. It is filed as cell-based. The settings on record: oxacillin 500 μg/ml, […]. How it is done:
Transmission Electron Microscope Observations of the Bactericidal Effect of the Novel Antibiotic PMC-SA1 on Methicillin-Resistant Staphylococcus aureus (ATCC BAA-42) (Dyed by 1% Phospho-Wolframic Acid, Magnified by 25,000 Fold)
Culture solution: 1% tryptone, 1% NaCl, 0.5% yeast extract, 0.5% glucose, 0.1% K2HPO4.
Con: control group, the bacterium was added to the above culture solution and proper amount of 0.3 M NaCl+50 mM boric acid buffer solution, 200 rpm, grew at 37° C. for 2 hours, and the bacterial appearance was still regular;
PMC: the bacterium was added to the above culture solution with 10 μg/ml PMC-SA1 for 0.5 hours.

For assay [2], the system named is Staphylococcus aureus (MSSA). Kind of assay: MIC by Agar Doubling Dilution Method, clinical isolates. The assay is classed as cell-based. The settings on record: MSSA clinical strains. How it is done: (§1) (3) Culture Solution • MH Broth Culture Solution: 25 g was added into […] distilled water, heat to dissolve, subpackaged, autoclaved at 116° C. for 20 minutes, and MH Solid Culture Medium, 36 g was added into 1000 ml distilled water, autoclaved at 116° C. for 20 minutes, used for drug sensitive test of Gram-positive and negative aerobic bacteria. • Blood culture solution for Enterococcus faecalis, which was prepared by adding defibration rabbit blood into the MH culture solution by 5-10% and cultured at 37° C. in 5% CO2 for 24 hours. 2. Experimental Methods (1) The Measurement of Minimum Inhibitory Concentration (MIC) • The Minimum Inhibitory Concentration (MIC) of PMC-SA1 was measured by Agar Doubling Dilution Method. The bacterium was inoculated on the surface of agar plate containing different concentration of drugs by multipoint inoculate instrument (Deneley A400). The bacterial content per point was 10^5 CFU/ml. After incubated at 37° C. for 18-24 hours, the result can be observed. The least concentration of drugs in plate culture solution without bacterium growing was Minimum Inhibitory Concentration (MIC) of the drug to the said bacteria. 3. Results

For assay [3], the system named is Staphylococcus epidermidis (MRSE). The description is as above. The assay is classed as cell-based. The settings on record: MRSE clinical strains. How it is done:
as §1

The subject of assay [4] is Staphylococcus epidermidis (MSSE strain). The description is as above. The assay is classed as cell-based. The settings on record: MSSE clinical strains. As for the experimental part:
as §1

The test system of a further assay is Enterococcus. The assay is described as above. It is filed as cell-based, Enterococcus faecalis. To be noted: Enterococcus clinical strains. As for the experimental part:
as §1

Assay [5] relates to methicillin-resistant Staphylococcus aureus ATCC BAA-42. Kind of assay: Bacteria growth curve (A595 nm), comparison of the novel antibiotics. The assay is classed as cell-based. To be noted: drug 5 μg/ml, 37° C., A595 nm per hour. As for the experimental part: The following experiment was set for comparing bacteriostasis effects of 6 kinds of the novel antibiotics. The experimental bacteriaum was United States Standard Strain methicillin-resistant Staphylococcus aureus ATCC BAA-42. 5 microliter of bacteria solution (10^6 CFU/ml level bacterium amount) was added into 10 ml culture solution containing 1% peptone, 1% NaCl, 0.5% yeast extract, 0.5% glucose and 0.1% K2HPO4, total of 8 groups were prepared. The first group as control was added 0.3 M NaCl+50 mM boric acid buffer fluid by the same volume as that of antibiosis polypeptide liquid added in any experimental groups, the second group was added penicillin G sodium by 5 μg/ml, PMC-SA1, PMC-SA2, PMC-SA3, PMC-SA4, PMC-SE and PMC-PA were added in the other experimental groups with preservative fluid being 0.3 M NaCl+50 mM boric acid buffer fluid by 5 ug/ml.
The solution of above groups was put into 100 ml conical flask, 200 rpm, grew at 37° C. 100 μl was sampled per hour, and added onto 96-pore ELISA plate and measured bacteria grown cloudiness by spectrophotometer (A595 nm) color comparison. The bacteria growth curve was drawn up to compare the bacteriostasis efficacy of antibiosis polypeptide.

Assay [6] relates to Pseudomonas aeruginosa Standard Strain (ATCC 27853). Kind of assay: Bacteria growth curve (A595 nm cloudiness), Pseudomonas aeruginosa. It is filed as cell-based. To be noted: drug 5 μg/ml, 37° C., A595 nm per hour. As for the experimental part: The experimental bacterium was Pseudomonas aeruginosa Standard Strain (ATCC 27853) purchased from the Center for General Microorganism of the Administration (CGMCC). 5 microliter bacteria solution (10^6 CFU/ml level bacterium amount) was added into 10 ml MH culture solution. Seven groups are prepared. 0.3 M NaCl+50 mM boric acid buffer fluid which amount was identical to amount of antibiosis polypeptide liquid in the experimental group was added as control in the first group, 5 μg/ml wild-type colicin Ia was added in the second group, 5 μg/ml PMC-SA1 was added in the third group, and 5 μg/ml PMC-PA was added in the fourth group.
Liquid in the above groups was put into 100 ml conical flask, 200 rpm, grew at 37° C. 100 μl was sampled per hour, and added onto 96-hole Elisa Plate to measure bacteria grown cloudiness by spectrophotometer (A595 nm) color comparison. The bacteria growth curve was drawn up to compare the bacteriostasis efficacy of antibiosis polypeptide.

Assay [7] concerns Multiple-drug resistance Pseudomonas aeruginosa (clinical separated strain 13280). The assay can be described thus: In vivo protection of mice infected by multiple-drug resistance Pseudomonas aeruginosa. Also noted: species or system Kungming mice. To be noted: 5 mg/kg intravenous, fatal dose i.p. The source says:
(1) Drugs • PMC-PA, piperacillin, amikacin, ceftazidime, levofloxacin.
Multiple-drug resistance Pseudomonas aeruginosa (clinical separated strain 13280, isolated by laboratory bacteria room of West China Hospital)
Kungming mice (n=60), half male and half female, weighing 15-20 g were given intraperitoneal injection of multiple-drug resistance Pseudomonas aeruginosa, therein PMC-PA, piperacillin, amikacin, ceftazidime and levofloxacin experimental group were set respectively as 10 mice per group, while the control group was set as 10 mice per group. After given intraperitoneal injection of fatal dose of the bacterium, the mice in drug experimental groups respectively were given an intravenous injection of one kind of above drugs, the results were observed per 24 hours for continuous 10 days. The positive result was mouse's death.

Regarding `Cc1onc(-c2ccccc2)c1C(=O)N[C@@H]1C(=O)N2[C@@H]1SC(C)(C)[C@@H]2C(=O)[O-].[Na+]` [Oxacillin, Oxacillin Sodium], the “bactericidal effect, bacterial appearance under transmission electron microscope” value in assay [1] was “the colour as well as appearance of the bacterium had changed, but the thallus was still integrated”; in assay [1] (listed as oxacillin) it was “the appearance of bacterium had changed, but thallus were still integrative”. The MIC50 was 0.125 µg/mL in assay [2], 64 µg/mL in assay [3], 0.03 µg/mL in assay [4] and 16 µg/mL in the assay on Enterococcus. The MIC90 in assay [2] and in assay [4] was 0.125 µg/mL in each case. The figures for the “Scope of MIC” value in assay [2] and in assay [4] were <0.015-0.25 ^ mg/L and <0.125-0.25 ^ mg/L, respectively. The “bacteriostasis effect on growth of methicillin-resistant Staphylococcus aureus (bacteria growth curve)” value in assay [5] is “can hardly be restrained”.

B1: PMC-PA: Staphylococcus aureus pheromone AgrD I connected to N-terminus of allosteric colicin Ia′; SEQ ID NO. 23; plasmid pBHC-PA (protein)
chain: YSTCDFIMSDPVRITNPAAESLGYDSDGREIMGVDIYLNPPRVDVFKGTPPAWSSFGNKTIWGGNEWVDDSPTRSDIEKRDKEITAYKNTLSAQQKENENKRTEAGKRLSAAIAAREKDENTLKTLRAGNADAADITRQEFRLLQAELREYGFRTEIAGYDALRLHTESRMLFADADSLRISPREARSLIEQAEKRQKDAQNADKKAADMLAEYERRKGILDTRLSELEKNGGAALAVLDAQQARLLGQQTRNDRAISEARNKLSSVTESLNTARNALTRAEQQLTQQKNTPDGKTIVSPEKFPGRSSTNHSIVVSGDPRFAGTIKITTSAVIDNRANLNYLLSHSGLDYKRNILNDRNPVVTEDVEGDKKIYNAEVAEWDKLRQRLLDARNKITSAESAVNSARNNLSARTNEQKHANDALNALLKEKENIRNQLSGINQKIAEEKRKQDELKATKDAINFTTEFLKSVSEKYGAKAEQLAREMAGQAKGKKIRNVEEALKTYEKYRADINKKINAKDRAAIAAALESVKLSDISSNLNRFSRGLGYAGKFTSLADWITEFGKAVRTENWRPLFVKTETIIAGNAATALVALVFSILTGSALGIIGYGLLMAVTGALIDESLVEKANKFWGI
modifications: The peptide of PMC-SA
notes: Staphylococcus aureus pheromone AgrD I connected to N-terminus of allosteric colicin Ia′; 23; plasmid pBHC-PA
For the molecule B1, in assay [5], the “bacteriostasis effect on growth of methicillin-resistant Staphylococcus aureus (bacteria growth curve)” value is “the worst”. The entries for the “growth of Pseudomonas aeruginosa (bacteria growth curve)” value in assay [6] and in assay [6] (listed as SEQ ID NO. 23) were “completely restrained” and “has antibacterial effect on Pseudomonas aeruginosa”, respectively. Further, the “survival rate of mice in 10 days” value in assay [7] is given as 100%.

B2: wild-type colicin Ia: wild-type bacterial toxin colicin Ia secreted by E. coli (protein, UniProt P06716 1-626, looked up)
Colicin-Ia: MSDPVRITNPGAESLGYDSDGHEIMAVDIYVNPPRVDVFHGTPPAWSSFGNKTIWGGNEWVDDSPTRSDIEKRDKEITAYKNTLSAQQKENENKRTEAGKRLSAAIAAREKDENTLKTLRAGNADAADITRQEFRLLQAELREYGFRTEIAGYDALRLHTESRMLFADADSLRISPREARSLIEQAEKRQKDAQNADKKAADMLAEYERRKGILDTRLSELEKNGGAALAVLDAQQARLLGQQTRNDRAISEARNKLSSVTESLNTARNALTRAEQQLTQQKNTPDGKTIVSPEKFPGRSSTNHSIVVSGDPRFAGTIKITTSAVIDNRANLNYLLSHSGLDYKRNILNDRNPVVTEDVEGDKKIYNAEVAEWDKLRQRLLDARNKITSAESAVNSARNNLSARTNEQKHANDALNALLKEKENIRNQLSGINQKIAEEKRKQDELKATKDAINFTTEFLKSVSEKYGAKAEQLAREMAGQAKGKKIRNVEEALKTYEKYRADINKKINAKDRAAIAAALESVKLSDISSNLNRFSRGLGYAGKFTSLADWITEFGKAVRTENWRPLFVKTETIIAGNAATALVALVFSILTGSALGIIGYGLLMAVTGALIDESLVEKANKFWGI
In the case of B2, in assay [6], the “growth of Pseudomonas aeruginosa (bacteria growth curve)” value is given as “can not be effectively restrained”.
